The results in this text go back to patent US10011595B2 (Merck Sharp & Dohme Corp., priority 2014, dated 2018).

This test concerns the target human orexin-2 receptor (Homo sapiens (Human), UniProt O43614). Briefly: FLIPR Ca2+ Flux Assay, orexin-2 receptor. It is filed as cell-based. The following applies: CHO cells expressing the human orexin-2 receptor; agonist 70 pM Ala-6,12 orexin-A; read-out: hOX2R FLIPR IC50. The protocol: In a typical experiment the OX1 and OX2 receptor antagonistic activity of the compounds of the present invention was determined in accordance with the following experimental method. For intracellular calcium measurements, Chinese hamster ovary (CHO) cells expressing the rat orexin-1 receptor or the human orexin-2 receptor, are grown in Iscove's modified DMEM containing 2 mM L-glutamine, […], 1% hypoxanthine-thymidine supplement, 100 U/ml penicillin, 100 μg/ml streptomycin and 10% heat-inactivated fetal calf serum (FCS). The cells are seeded at 20,000 cells/well into Becton-Dickinson black 384-well clear bottom sterile plates coated with poly-D-lysine. All reagents were from GIBCO-Invitrogen Corp. The seeded plates are incubated overnight at 37° C. and 5% CO2. Ala-6,12 human orexin-A as the agonist is prepared as a 1 mM stock solution in 1% bovine serum albumin (BSA) and diluted in assay buffer (HBSS containing 20 mM HEPES, 0.1% BSA and 2.5 mM probenecid, pH7.4) for use in the assay at a final concentration of 70 pM. Test compounds are prepared as 10 mM stock solution in DMSO, then diluted in 384-well plates, first in DMSO, then assay buffer. On the day of the assay, cells are washed 3 times with 100 μl assay buffer and then incubated for 60 min (37° C., 5% CO2) in 60 μl assay buffer containing 1 μM Fluo-4AM ester, 0.02% pluronic acid, and 1% BSA. The dye loading solution is then aspirated and cells are washed 3 times with 100 μl assay buffer. 30 μl of that same buffer is left in each well. Within the Fluorescent Imaging Plate Reader (FLIPR, Molecular Devices), test compounds are added to the plate in a volume of 25 μl, incubated for 5 min and finally 25 μl of agonist is added. Fluorescence is measured for each well at 1 second intervals for 5 minutes and the height of each fluorescence peak is compared to the height of the fluorescence peak induced by 70 pM Ala-6,12 orexin-A with buffer in place of antagonist. For each antagonist, IC50 value (the concentration of compound needed to inhibit 50% of the agonist response) is determined. Alternatively, compound potency can be assessed by a radioligand binding assay (described in Bergman et. al. Bioorg. Med. Chem. Lett. 2008, 18, 1425-1430) in which the inhibition constant (Ki) is determined in membranes prepared from CHO cells expressing either the OX1 or OX2 receptor. The intrinsic orexin receptor antagonist activity of a compound which may be used in the present invention may be determined by these assays.

Chain of human orexin-2 receptor (O43614 whole entry): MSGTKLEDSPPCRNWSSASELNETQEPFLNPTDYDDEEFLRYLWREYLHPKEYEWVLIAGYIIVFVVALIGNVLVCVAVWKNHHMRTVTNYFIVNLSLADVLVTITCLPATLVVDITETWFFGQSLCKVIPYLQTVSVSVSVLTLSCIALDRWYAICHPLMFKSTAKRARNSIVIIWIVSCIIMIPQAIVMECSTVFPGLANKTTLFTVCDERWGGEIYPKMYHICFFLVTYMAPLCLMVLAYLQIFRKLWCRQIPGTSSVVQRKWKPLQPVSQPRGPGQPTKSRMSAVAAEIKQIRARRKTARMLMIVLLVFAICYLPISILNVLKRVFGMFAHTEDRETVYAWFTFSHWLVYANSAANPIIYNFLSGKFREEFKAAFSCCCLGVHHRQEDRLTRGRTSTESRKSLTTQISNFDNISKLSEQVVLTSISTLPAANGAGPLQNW

Consider `CCN(CCN(C)c1nc(C)cc(C)n1)C(=O)c1nccnc1-c1ccccn1` [Example B-33, N-{2-[(4,6-dimethylpyrimidin-2-yl)(methyl)amino]ethyl}-N-ethyl-3-pyridin-2-ylpyrazine-2-carboxamide], for which the IC50 was 23 nM.

Take `CCN(CCN(CC)c1nc(C)cc(C)n1)C(=O)c1ccccc1-n1nccn1` [Example C-1, N-(2-((4,6-dimethylpyrimidin-2-yl)(ethyl)amino)ethyl)-N-ethyl-2-(2H-H-1,2,3-triazol-2-yl)benzamide]: the IC50 turned out to be 36.6 nM.

With `CCN(CCN(CC(F)F)c1nc(C)cc(C)n1)C(=O)c1ccccc1-n1nccn1` [Example D-1, N-(2-((2,2-difluoroethyl)(4,6-dimethylpyrimidin-2-yl)amino)ethyl)-N-ethyl-2-(2H-1,2,3-triazol-2-yl)benzamide], the IC50 was determined as 56.1 nM.

For `CCN(CCN(C)c1cc(C#N)ccn1)C(=O)c1ccccc1-n1nccn1` [Example E-1, N-(2-((4-cyanopyridin-2-yl)(methyl)amino)ethyl)-N-ethyl-2-(2H-1,2,3-triazol-2-yl)benzamide], the IC50 worked out at 14.5 nM.

Consider `CCN(CCN(C)c1nccc(C#N)c1C)C(=O)c1ccccc1-n1nccn1` [Example E-7, N-(2-((4-cyano-3-methylpyridin-2-yl)(methyl)amino)ethyl)-N-ethyl-2-(2H-1,2,3-triazol-2-yl)benzamide], for which the IC50 was 198 nM.

For `CCN(CCN(C)c1nccc(C#N)c1Cl)C(=O)c1ccccc1-n1nccn1` [Example E-8, N-{2-[(3-chloro-4-cyanopyridin-2-yl)(methyl)amino]ethyl}-N-ethyl-2-(2H-1,2,3-triazol-2-yl)benzamide], the IC50 came to 110 nM.

With `CCN(CCN(C)c1nc(OC)cc(OC)n1)C(=O)c1ccccc1-n1nccn1` [Example E-9, N-{2-[(4,6-dimethoxypyrimidin-2-yl)(methyl)amino]ethyl}-N-ethyl-2-(2H-1,2,3-triazol-2-yl)benzamide], the IC50 is 341 nM.

With `CCN(CCN(C)c1nccc(C#N)n1)C(=O)c1ccccc1-n1nccn1` [Example E-10, N-{2-[(4-cyanopyrimidin-2-yl)(methyl)amino]ethyl}-N-ethyl-2-(2H-1,2,3-triazol-2-yl)benzamide], the IC50 worked out at 244 nM.

`CCN(CCN(C)c1nc(Cl)cc(N(C)C)n1)C(=O)c1ccccc1-n1nccn1` [Example E-11, N-(2-{[4-chloro-6-(dimethylamino)pyrimidin-2-yl](methyl)amino}ethyl)-N-ethyl-2-(2H-1,2,3-triazol-2-yl)benzamide]: the IC50 was found to be 18.4 nM.

Consider `CCN(CCN(C)c1cccc(C#N)n1)C(=O)c1ccccc1-n1nccn1` [Example E-14, N-{2-[(6-cyanopyridin-2-yl)(methyl)amino]ethyl}-N-ethyl-2-(2H-1,2,3-triazol-2-yl)benzamide], for which the IC50 was found to be 569 nM.

As for `CCN(CCN(C)c1ncc(Cl)c(C(F)(F)F)n1)C(=O)c1ccccc1-n1nccn1` [Example E-16, N-(2-{[5-chloro-4-(trifluoromethyl)pyrimidin-2-yl](methyl)amino}ethyl)-N-ethyl-2-(2H-1,2,3-triazol-2-yl)benzamide], the IC50 worked out at 84.7 nM.

For `CCN(CCN(C)c1cccc(C#N)n1)C(=O)c1ccccc1-n1nccn1` [Example E-22, N-{2-[(6-cyanopyridin-2-yl)(methyl)amino]ethyl}-N-ethyl-2-(2H-1,2,3-triazol-2-yl)benzamide], the IC50 turned out to be 569 nM.

Consider `CCN(CCN(C)c1cc(C#N)ccn1)C(=O)c1ccccc1OC(F)(F)F` [Example F-1, {2-[(4-cyanopyridin-2-yl)(methyl)amino]ethyl}-N-ethyl-2-(trifluoromethoxy)benzamide], for which the IC50 is 58.2 nM.

In the case of `CCN(CCN(C)c1cc(C#N)ccn1)C(=O)c1ccccc1-c1nnn[nH]1` [Example F-5, N-{2-[(4-cyanopyridin-2-yl)(methyl)amino]ethyl}-N-ethyl-2-(1H-tetrazol-5-yl)benzamide], the IC50 came out at 10000 nM.

Consider `CCN(CCN(C)c1cc(C#N)ccn1)C(=O)c1cccnc1OCc1ccccc1` [Example F-6, 2-(benzyloxy)-N-{2-[(4-cyanopyridin-2-yl)(methyl)amino]ethyl}-N-ethylpyridine-3-carboxamide], for which the IC50 turned out to be 97.9 nM.

Turning to `CCN(CCN(C)c1cc(C#N)ccn1)C(=O)c1cccnc1Oc1ccccc1` [Example F-7, N-{2-[(4-cyanopyridin-2-yl)(methyl)amino]ethyl}-N-ethyl-2-phenoxypyridine-3-carboxamide], the IC50 is 10000 nM.

For the compound `CCN(CCN(C)c1cc(C#N)ccn1)C(=O)c1cccnc1C(F)(F)F` [Example F-8, N-{2-[(4-cyanopyridin-2-yl)(methyl)amino]ethyl}-N-ethyl-2-(trifluoromethyl)pyridine-3-carboxamide], the IC50 stood at 1990 nM.

In the case of `CCN(CCN(C)c1cc(C#N)ccn1)C(=O)c1ccccc1-n1ccnc1` [Example F-9, N-{2-[(4-cyanopyridin-2-yl)(methyl)amino]ethyl}-N-ethyl-2-(1H-imidazol-1-yl)benzamide], the IC50 was 10000 nM.

For `CCN(CCN(C)c1cc(C#N)ccn1)C(=O)c1ccccc1C1(C#N)CCOCC1` [Example F-10, N-{2-[(4-cyanopyridin-2-yl)(methyl)amino]ethyl}-2-(4-cyanotetrahydro-2H-pyran-4-yl)-N-ethylbenzamide], the half-inhibitory concentration (IC50) worked out at 7200 nM.

Regarding `CCN(CCN(C)c1cc(C#N)ccn1)C(=O)c1ccccc1-c1cnccn1` [Example F-11, N-{2-[(4-cyanopyridin-2-yl)(methyl)amino]ethyl}-N-ethyl-2-pyrazin-2-ylbenzamide], the IC50 amounted to 23 nM.

On to `CCN(CCN(C)c1cc(C#N)ccn1)C(=O)c1ccccc1-n1cccn1` [Example F-12, N-{2-[(4-cyanopyridin-2-yl)(methyl)amino]ethyl}-N-ethyl-2-(1H-pyrazol-1-yl)benzamide], for which the concentration for half-maximal inhibition (IC50) was 49.6 nM.

As to `CCN(CCN(C)c1cc(C#N)ccn1)C(=O)c1ccccc1OCCF` [Example F-13, N-{2-[(4-cyanopyridin-2-yl)(methyl)amino]ethyl}-N-ethyl-2-(2-fluoroethoxy)benzamide], the IC50 is 48.4 nM.

`CCN(CCN(C)c1cc(C#N)ccn1)C(=O)c1ccccc1OCC(F)(F)F` [Example F-14, N-{2-[(4-cyanopyridin-2-yl)(methyl)amino]ethyl}-N-ethyl-2-(2,2,2-trifluoroethoxy)benzamide]: the IC50 stood at 77.4 nM.

`CCN(CCN(C)c1cc(C#N)ccn1)C(=O)c1c(F)cccc1-n1nccn1` [Example F-15, N-{2-[(4-cyanopyridin-2-yl)(methyl)amino]ethyl}-N-ethyl-2-fluoro-6-(2H-1,2,3-triazol-2-yl)benzamide]: the IC50 was found to be 33.9 nM.

Turning to `CCN(CCN(C)c1cc(C#N)ccn1)C(=O)c1ccccc1COC` [Example F-16, N-{2-[(4-cyanopyridin-2-yl)(methyl)amino]ethyl}-N-ethyl-2-(methoxymethyl)benzamide], the IC50 is 688 nM.

Take `CCN(CCN(C)c1cc(C#N)ccn1)C(=O)c1c(F)cccc1-n1ccnn1` [Example F-17, N-{2-[(4-cyanopyridin-2-yl)(methyl)amino]ethyl}-N-ethyl-2-fluoro-6-(1H-1,2,3-triazol-1-yl)benzamide]: the IC50 stood at 945 nM.

Consider `CCN(CCN(C)c1cc(C#N)ccn1)C(=O)c1cccc2[nH]c(=O)oc12` [Example F-18, N-{2-[(4-cyanopyridin-2-yl)(methyl)amino]ethyl}-N-ethyl-2-oxo-2,3-dihydro-1,3-benzoxazole-7-carboxamide], for which the IC50 is 10000 nM.

Turning to `CCOc1nc2cccc(C(=O)N(CC)CCN(C)c3cc(C#N)ccn3)c2[nH]1` [Example F-19, N-{2-[(4-cyanopyridin-2-yl)(methyl)amino]ethyl}-2-ethoxy-N-ethyl-1H-benzimidazole-7-carboxamide], the IC50 stood at 10000 nM.

Take `CCN(CCN(C)c1cc(C#N)ccn1)C(=O)c1cc(C)ccc1-n1nccn1` [Example F-20, N-{2-[(4-cyanopyridin-2-yl)(methyl)amino]ethyl}-N-ethyl-5-methyl-2-(2H-1,2,3-triazol-2-yl)benzamide]: the IC50 amounted to 16.2 nM.

Turning to `CCN(CCN(C)c1cc(C#N)ccn1)C(=O)c1ccccc1-n1cc(C)nn1` [Example F-21, N-{2-[(4-cyanopyridin-2-yl)(methyl)amino]ethyl}-N-ethyl-2-(4-methyl-1H-1,2,3-triazol-1-yl)benzamide], the IC50 stood at 341 nM.

Regarding `CCN(CCN(C)c1cc(C#N)ccn1)C(=O)c1ccccc1N1CCCC1` [Example F-22, N-{2-[(4-cyanopyridin-2-yl)(methyl)amino]ethyl}-N-ethyl-2-pyrrolidin-1-ylbenzamide], the IC50 was found to be 31.8 nM.
